According to US4123552A, “Compositions for preserving crops and animal feedstuffs” (Chevron Research Company, priority 1975, dated 1978):

Assays:
[1] = Solubility of insecticides in methylene bispropionate; assay type: physicochemical; conditions: solvent methylene bispropionate
Experimental: Methylene bispropionate was tested as a solvent for various insecticides. […] O,S-dimethylN-acetyl phosphoramidothioate was soluble in methylene bispropionate to the extent of 5 percent by weight. Chlordane was soluble in methylene bispropionate to the extent of at least 75 percent by weight.

[2] = tested on: Rhizopus sp.; experiment: Concentration for 90% control of pathogen on corn seeds (Table V), Rhizopus sp.; assay type: cell-based; conditions: 5 days after treatment
Experimental: (§1) A small amount of acetone was added to the bis-ester to make specific volume, plus a small portion of emulsifier making it into a slurry. This preparation was diluted with water to the desired concentration. Solution was then evenly distributed on the wall of a glass jar. High moisture feedcorn with natural infection was stored frozen after harvest until used for this test. The corn seeds were rolled in the jar until they were coated and the solution was completely absorbed on them.
(§2) Following the treatment, the corn seeds were plated on Potato Dextrose Agar plates. For comparison, untreated corn seeds were also plated. Propionic acid was also tested for comparison.
(§3) A variety of bis-esters was tested for the control of seed- and soil-borne pathogens during the storage of corn seeds (Zea mays) by the procedure of Example 11. For comparison, propionic acid was also tested.
(§4) Control of each pathogen was determined by mycelial growth in millimeters in the treated seeds relative to untreated seeds. Mycelial growth of Rhizopus species and Fusarium species was evaluated 5 days after treatment. Mycelial growth in Aspergillus niger was evaluated 14 days after treatment.
(§5) The bis-ester tested and the concentration of active ingredient in ounces per 100 lbs. of corn seeds for 90 percent control of each pathogen species are tabulated in Table V.

[3] = tested on: Fusarium sp.; experiment: Concentration for 90% control of pathogen on corn seeds (Table V), Fusarium sp.; assay type: cell-based; conditions: 5 days after treatment
Experimental: as §1, §2, §3, §4, §5

[4] = tested on: All Species; experiment: Control of seed- and soil-borne pathogens during storage of corn seeds (Table IV), all species; assay type: cell-based, Rhizopus, Penicillium, Fusarium; conditions: relative to untreated check
Experimental: A variety of bis-esters was tested for the control of seed- and soil-borne pathogens during storage of corn seeds (Zea mays) by the following procedure.
as §1, §2
The percentage control of all species was based on the total sum average of mycelial growth in millimeters of all species in the treated seeds relative to the untreated check. The fast growing Rhizopus was evaluated 7 days after treatment, the other fungi after 14 days.

[5] = tested on: Aspergillus niger; experiment: Concentration for 90% control of pathogen on corn seeds (Table V), Aspergillus niger; assay type: cell-based; conditions: corn seeds; 14 days after treatment
Experimental: as §1, §2, §3, §4, §5

[6] = tested on: high moisture corn; experiment: Preservation of high moisture corn in ventilated cans (time until temperature exceeds room temperature); conditions: for Weeks Effective: corn 25 percent moisture, 70-72 F
Experimental: High moisture corn (25 percent moisture) was treated with various methylene and polyoxymethylene esters of propionic or acetic acid of various dosages. The esters were applied to the corn in a mixer for one minute at 32 RPM. Three replicate two gallon ventilated cans were filled with the treated corn. The cans were then held at a temperature of 70°-72° F. Temperature readings were taken semi-weekly by means of thermocouples in the center of each can. When the temperature exceeded constant room temperature for at least an 8-hour period the treatment was considered broken.

Row | SMILES | % Control All Species ([4]; 1.0 Oz./100 Lbs.) [%] | % Control All Species ([4]; 2.5 Oz./100 Lbs.) [%] | % Control All Species ([4]; 6.4 Oz./100 Lbs.) [%] | % Control All Species ([4]; 16 Oz./100 Lbs.) [%] | other results
1 | COP(=O)(NC(C)=O)SC (stereo not shown) [O,S-dimethylN-acetyl phosphoramidothioate] | – | – | – | – | solubility in methylene bispropionate [1]: 5 percent by weight
2 | CCCC(=O)OCOCOC(=O)CCC [Oxybismethylene Bisbutyrate] | 100 | 100 | 100 | 100 | Conc. for 90% Control, Rhizopus sp. [2]: 1.1 oz./100 lbs.; Conc. for 90% Control, Fusarium sp. [3]: 1.0 oz./100 lbs.; Conc. for 90% Control, Aspergillus niger [5]: 0.57 oz./100 lbs.
3 | CC(=O)OC(C)OC(C)=O [Ethylidene Bisacetate] | 60 | 87 | 93 | 100 | –
4 | CC(C)C(=O)OCOC(=O)C(C)C [Methylene Bisisobutyrate] | 98 | 99 | 100 | 98 | Conc. for 90% Control, Rhizopus sp. [2]: 3.2 oz./100 lbs.; Conc. for 90% Control, Fusarium sp. [3]: 2.0 oz./100 lbs.; Conc. for 90% Control, Aspergillus niger [5]: * (No Control at 2.5 oz./100 lbs.)
5 | CC(=O)OCOC(C)=O [Methylene Bisacetate] | – | – | – | – | Weeks Effective ([6]; 3 Oz/Bu): 6 Weeks; Weeks Effective ([6]; 6 Oz/Bu): > 12 Weeks
6 | CCC(=O)OCOCOC(=O)CC [Oxybismethylene Propionate, Oxybismethylene Bispropionate] | – | – | – | – | Weeks Effective ([6]; 2 Oz/Bu): 6 Weeks; Weeks Effective ([6]; 3 Oz/Bu): 12 Weeks; Weeks Effective ([6]; 4 Oz/Bu): > 12 Weeks; Weeks Effective ([6]; 5 Oz/Bu): > 12 Weeks; effectiveness in preservation of high moisture corn (in words) ([6]; from Table II): remarkably superior to propionic acid in the preservation of high moisture corn
7 | CCOC(=O)CC(SP(=S)(OC)OC)C(=O)OCC (stereo not drawn) [Malathion, S-[1,2-bis(ethoxycarbonyl)ethyl]-O,O-dimethyl phosphorodithioate] | – | – | – | – | miscibility with methylene bispropionate (in words) [1]: miscible with methylene bispropionate in all proportions
8 | CCC(=O)OC(OC(=O)CC)c1ccccc1 [Benzylidene Bispropionate] | 46 | 54 | 79 | 91 | –
